Where a SMILES comes first, the peptide text is derived from it.
Legend:
human 5-HT3-C = target: T1, human 5-HT3-C (Homo sapiens, UniProt Q8WXA8); test: Two-electrode voltage clamp, Xenopus oocytes injected with 5-HT3-C cRNA alone; assay type: cell-based; conditions: for sensitivity of oocytes to neuroactive compound: >100 μM, only 5-HT3-C cRNA (33.5 ng), n=5
T1 construct: Characterization of the Function of Protein Encoded by p5HT3CR in Xenopus oocvtes; expressed in transfected cells; host or cells: Xenopus laevis oocytes injected with in vitro transcribed cRNA (pGEM HE)
T1 sequence (Q8WXA8 28-447): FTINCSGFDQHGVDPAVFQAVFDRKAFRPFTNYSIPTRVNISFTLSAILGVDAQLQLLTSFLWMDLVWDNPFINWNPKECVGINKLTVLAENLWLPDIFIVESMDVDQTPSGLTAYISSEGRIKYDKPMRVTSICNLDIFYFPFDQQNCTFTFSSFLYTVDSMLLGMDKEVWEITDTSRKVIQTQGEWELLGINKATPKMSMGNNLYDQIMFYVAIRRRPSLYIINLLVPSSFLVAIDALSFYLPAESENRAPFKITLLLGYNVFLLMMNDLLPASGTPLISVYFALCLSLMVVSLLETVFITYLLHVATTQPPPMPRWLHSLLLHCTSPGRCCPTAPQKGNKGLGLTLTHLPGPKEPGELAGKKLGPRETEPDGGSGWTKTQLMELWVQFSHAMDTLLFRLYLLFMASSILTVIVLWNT
Procedure: Characterization of the Function of Protein Encoded by p5HT3CR in Xenopus oocvtes Xenopus laevis oocytes were prepared and injected using standard methods previously described and known in the art (Fraser et al., 1993). Ovarian lobes from adult female Xenopus laevis (Nasco, Fort Atkinson, Wis.) were teased apart, rinsed several times in nominally Ca-free saline containing (in mM): NaCl 82.5, KCl 2.5, MgCl2 1, HEPES 5, adjusted to pH 7.0 with NaOH(OR-2), and gently shaken in OR-2 containing 0.2% collagenase Type 1 (ICN Biomedicals, Aurora, Ohio) for 2–5 hours. When approximately 50% of the follicular layers were removed, Stage V and VI oocytes were selected and rinsed in media consisting of 75% OR-2 and 25% ND-96. The ND-96 contained (in mM): NaCl 100, KCl 2, MgCl2 1, CaCl2 1.8, HEPES 5, Na pyruvate 2.5, gentamicin (50 ug/ml), adjusted to pH 7.0 with NaOH. […] For in vitro transcription, pGEM HE (Liman et al., 1992) containing human 5-HT3-A (Genbank D49394) or 5-HT3-C cDNA was linearized with NheI and transcribed with T7 RNA polymerase (Stratagene) in the presence of the cap analog m7G(5′)ppp(5′)G. The synthesized cRNA was purified with a Sephadex G-50 spin column. […] Control oocytes were injected with 50 nl of water. Oocytes were incubated for 2–14 days in ND-96 before analysis for expression of the human 5-HT3-C. Incubations and collagenase digestion were carried out at room temperature. Injected oocytes were maintained in 48 well cell culture clusters (Costar, Cambridge, Mass.) at 18° C. Whole cell agonist-induced currents were measured 1–14 days after injection with a conventional two-electrode voltage clamp (GeneClamp500, Axon Instruments, Foster City, Calif.) using standard methods previously described and known in the art (Dascal, 1987). The microelectrodes were filled with 3 M KCl, which had resistances of 1 and 2 MΩ. Cells were continuously perfused with ND96 at 10 ml/min at room temperature unless indicated. Membrane voltage was clamped at −70 mV unless indicated.

[1] = target: T2, 5-HT3-C together with nicotinic ACh receptor subunits β1, β2 and β3 (Homo sapiens, UniProt Q8WXA8); test: Two-electrode voltage clamp, oocytes injected with 5-HT3-C together with nicotinic ACh receptor subunits β1, β2 and β3; assay type: cell-based; conditions: >100 μM; 5-HT3-C with β1, β2 and β3 (0.2–0.25 ng); n=5;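 note: oocytes expressing the subunits for 2–14 days, voltage-clamped at −70 mV under continuous ND96 perfusion at room temperature, with water-injected oocytes serving as controls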
T2 construct: Characterization of the Function of Protein Encoded by p5HT3CR in Xenopus oocvtes; expressed in transfected cells; host or cells: Xenopus laevis oocytes injected with cRNA
T2 sequence (Q8WXA8 28-447): T1 sequence (Q8WXA8 28-447)

Row | Structure (SMILES) | sensitivity of oocytes to neuroactive compound (human 5-HT3-C) | sensitivity of oocytes to neuroactive compound [1] | effect of agonist (agonist-induced current) (human 5-HT3-C; 100 μM, oocytes injected with 33.5 ng 5-HT3-C) | effect of agonist (agonist-induced current) (human 5-HT3-C; 100 M, oocytes injected with 33.3 ng 5-HT3-C cRNA) | effect of agonist (agonist-induced current) (human 5-HT3-C; 10 μM, oocytes injected with 33.3 ng 5-HT3-C cRNA) | effect of agonist (agonist-induced current) (human 5-HT3-C; >30 μM, oocytes injected with 33.3 ng 5-HT3-C cRNA)
1 | O=C(O)Cc1c[nH]c2ccc(O)cc12 [5-hydroxyindolacetic acid] | insensitive | insensitive |  |  |  | 
2 | NC(=O)Cc1c[nH]c2ccc(O)cc12 [5-hydroxyindole 3-acetamide] | insensitive | insensitive |  |  |  | 
3 | COc1cc2c(CCNC(C)=O)c[nH]c2cc1O [6-hydroxymelatonin] | insensitive | insensitive |  |  |  | 
4 | NCCc1ccc(O)c(O)c1 [DA, dopamine] | insensitive | insensitive | No effect |  |  | 
5 | NCCCC(=O)O [GABA] | insensitive | insensitive |  |  |  | No effect
6 | N[C@H](CC(=O)O)C(=O)O [L-aspartate, L- and D-aspartate] | insensitive | insensitive |  |  |  | 
7 | CC(=O)NCCc1c[nH]c2ccc(O)cc12 [N-acetyl serotonin] | insensitive | insensitive |  |  |  | 
8 | N[C@@H]1CONC1=O [d-cycloserine] | insensitive | insensitive |  |  |  | 
9 | N[C@@H](CCC(=O)O)C(=O)O [glutamate] | insensitive | insensitive |  |  |  | 
10 | NCC(=O)O [glycine] | insensitive | insensitive |  | No effect |  | 
11 | NCCc1c[nH]cn1 [histamine] | insensitive | insensitive |  |  | No effect | 
12 | NC[C@H](O)c1ccc(O)c(O)c1 [norepinephrine] | insensitive | insensitive |  |  |  | 
13 | NCCc1c[nH]c2ccccc12 [tryptamine] | insensitive | insensitive |  |  |  | 
14 | NC(=O)[C@@H](N)Cc1c[nH]c2ccccc12 [tryptophanamide] | insensitive | insensitive |  |  |  | 

Further lines, with some results ahead:

Row | sensitivity of oocytes to neuroactive compound (human 5-HT3-C) | sensitivity of oocytes to neuroactive compound [1] | effect of agonist (agonist-induced current) (human 5-HT3-C; 100 μM, oocytes injected with 33.5 ng 5-HT3-C) | effect of agonist (agonist-induced current) (human 5-HT3-C; 100 M, oocytes injected with 33.3 ng 5-HT3-C cRNA) | effect of agonist (agonist-induced current) (human 5-HT3-C; 10 μM, oocytes injected with 33.3 ng 5-HT3-C cRNA) | Structure (SMILES) | effect of agonist (agonist-induced current) (human 5-HT3-C; >30 μM, oocytes injected with 33.3 ng 5-HT3-C cRNA)
15 | insensitive | insensitive |  |  |  | O=C(O)c1cc2cc(O)ccc2[nH]1 [5-hydroxyindole 2-carboxylic acid] | 
16 | insensitive | insensitive |  |  |  | CC(=O)N[C@@H](CS)C(=O)O [N-acetyl-L-cysteine] | 
17 | insensitive | insensitive |  |  |  | CC(=O)N[C@@H](CC(=O)O)C(=O)N[C@@H](CCC(=O)O)C(=O)O [acetyl-aspartyl-L-glutamic acid] (Ac-Asp-Glu-OH) | 
18 | insensitive | insensitive |  |  |  | N=C(N)NCCCCN [agmatine] | 
19 | insensitive | insensitive |  |  |  | NC/C=C\C(=O)O [cis-4 aminocrotonic acid] | 
20 | insensitive | insensitive |  |  |  | COc1ccc2[nH]cc(CCNC(C)=O)c2c1 [melatonin] | 
21 | insensitive | insensitive |  |  |  | NCC(O)c1ccc(O)cc1 (stereo not shown) [octopamine] | 
22 | insensitive | insensitive |  |  |  | NCCS(=O)(=O)O [taurine] | 
23 | insensitive | insensitive |  |  |  | N[C@@H](Cc1c[nH]c2ccccc12)C(=O)O [tryptophan] | 
24 | insensitive | insensitive |  |  |  | NCCc1ccc(O)cc1 [tyramine] | 
